In patent US11147272B2, “Pyridone compounds and agricultural and horticultural fungicides comprising the same as active ingredients” (MITSUI CHEMICALS AGRO, INC., priority 2017, dated 2021):

Experiments:
Magnaporthe grisea = assay: whole plant or invertebrate; type: in vivo; conditions: Blast on rice; control value class
Alternaia brassicicola = assay: Test Example C: Alternaria sooty spot on cabbage; type: in vivo; conditions: Alternaria sooty spot on cabbage; control value class
Excerpt: Seeds of a test plant (cabbage variety: Shikidori) were planted and cultivated until the cotyledons extended.
<Control Value> Control value=100{1−(n/3)}

Puccinia recondita = assay: Test Example E: Brown rust on wheat; type: in vivo; conditions: Brown rust on wheat; control value class
Phytophthora infestans = assay: whole plant or invertebrate; type: in vivo; conditions: Late blight on tomato; control value class
Botrytis cinerea = assay: Test Example B: Gray mold on tomato; conditions: Gray mold on tomato; control value class
Plasmopara viticola = assay: Test Example G: Downy mildew on vine; conditions: Downy mildew on vine; 250 ppm spray, 7 to 10 days after inoculation
[1] = system: Colletotrichum orbiculare; assay: Test Example H: Anthracnose on cucumber; conditions: Anthracnose on cucumber; 250 ppm spray, 6 to 10 days after inoculation
[2] = system: Blumeria graminis f. sp. hordei; assay: Test Example D: Powdery mildew on barley; conditions: Powdery mildew on barley; control value class

Compound	Test A control value (Magnaporthe grisea)	Test C control value (Alternaia brassicicola)	Test E control value (Puccinia recondita)	Test F control value (Phytophthora infestans)	Test B control value (Botrytis cinerea)	Test G control value (Plasmopara viticola)	Test H control value [1]	Test D control value [2]
CCn1c(-c2ccccc2Cl)c(CC(C)C)cc(Cl)c1=O [compound 265]	H (more than 50% control value)	H (more than 50% control value)	H (more than 50% control value)	L (50% or less control value)	H (more than 50% control value)	H (more than 50% control value)	H (more than 50% control value)	H (more than 50% control value)
CCCCCCCc1ccc(=O)n(CC)c1-c1ccc(F)cc1Cl [compound 266]	L (50% or less control value)	L (50% or less control value)	H (more than 50% control value)	L (50% or less control value)	L (50% or less control value)	L (50% or less control value)	H (more than 50% control value)	H (more than 50% control value)
CCCCCCCCCC1=C(c2ccc(F)cc2Cl)N(CC)C(=O)CC1 [compound 267]	L (50% or less control value)	L (50% or less control value)	L (50% or less control value)	L (50% or less control value)	L (50% or less control value)	L (50% or less control value)	H (more than 50% control value)	H (more than 50% control value)
CCCCCCCc1cc(Cl)c(=O)n(CC)c1-c1ccc(F)cc1Cl [compound 268]	L (50% or less control value)	L (50% or less control value)	L (50% or less control value)	L (50% or less control value)	L (50% or less control value)	L (50% or less control value)	L (50% or less control value)	H (more than 50% control value)
CCCCCCCc1cc(Br)c(=O)n(CC)c1-c1ccc(F)cc1Cl [compound 269]	L (50% or less control value)	L (50% or less control value)	L (50% or less control value)	L (50% or less control value)	L (50% or less control value)	L (50% or less control value)	L (50% or less control value)	H (more than 50% control value)
CCCCCCCCc1ccc(=O)n(CC)c1-c1ccc(F)cc1Cl [compound 270]	L (50% or less control value)	L (50% or less control value)	L (50% or less control value)	L (50% or less control value)	L (50% or less control value)	L (50% or less control value)	L (50% or less control value)	H (more than 50% control value)
CCCCCCCCc1cc(Cl)c(=O)n(CC)c1-c1ccc(F)cc1Cl [compound 271]	L (50% or less control value)	L (50% or less control value)	L (50% or less control value)	L (50% or less control value)	L (50% or less control value)	L (50% or less control value)	L (50% or less control value)	H (more than 50% control value)
CCCCCCCCc1cc(Br)c(=O)n(CC)c1-c1ccc(F)cc1Cl [compound 272]	L (50% or less control value)	L (50% or less control value)	H (more than 50% control value)	L (50% or less control value)	L (50% or less control value)	L (50% or less control value)	L (50% or less control value)	L (50% or less control value)
CCCCCCCCCc1ccc(=O)n(CC)c1-c1ccc(F)cc1Cl [compound 273]	L (50% or less control value)	L (50% or less control value)	L (50% or less control value)	L (50% or less control value)	L (50% or less control value)	L (50% or less control value)	L (50% or less control value)	H (more than 50% control value)
CCCCCCCCCc1cc(Cl)c(=O)n(CC)c1-c1ccc(F)cc1Cl [compound 274]	L (50% or less control value)	L (50% or less control value)	L (50% or less control value)	L (50% or less control value)	L (50% or less control value)	L (50% or less control value)	L (50% or less control value)	H (more than 50% control value)
CCCCCCCCCc1cc(Br)c(=O)n(CC)c1-c1ccc(F)cc1Cl [compound 275]	L (50% or less control value)	L (50% or less control value)	L (50% or less control value)	L (50% or less control value)	L (50% or less control value)	L (50% or less control value)	L (50% or less control value)	H (more than 50% control value)
CCCCC(O)c1cc(Cl)c(=O)n(CC)c1-c1c(F)cc(F)cc1F (stereo not shown) [compound 276]	H (more than 50% control value)	H (more than 50% control value)	H (more than 50% control value)	L (50% or less control value)	H (more than 50% control value)	H (more than 50% control value)	L (50% or less control value)	H (more than 50% control value)
CCCCC(=O)c1cc(Cl)c(=O)n(CC)c1-c1c(F)cc(F)cc1F [compound 277]	H (more than 50% control value)	H (more than 50% control value)	H (more than 50% control value)	L (50% or less control value)	H (more than 50% control value)	H (more than 50% control value)	H (more than 50% control value)	H (more than 50% control value)
CCN1C(=O)CCC(C)=C1c1ccc(F)cc1Cl [compound 278]	L (50% or less control value)	L (50% or less control value)	L (50% or less control value)	H (more than 50% control value)	L (50% or less control value)	L (50% or less control value)	H (more than 50% control value)	L (50% or less control value)
